Source: US8343991B2, “Anhydrous crystalline vinflunine salts, method of preparation and use thereof as a drug and means of vinflunine purification” (Pierre Fabre Medicament, priority 2007, dated 2013)

Columns and labels:
[1] = Comparative stability of amorphous ditartrate and crystalline fumarate, powder form, HPLC analysis; format: physicochemical; conditions: for degradation in powder form: 14 days
Protocol: Comparative stability of amorphous ditartrate and crystalline fumarate:
1. Raw material: • Batch OP3.0B: amorphous vinflunine ditartrate. • Batch JLM4008400: crystalline vinflunine fumarate.
(§1) 2. Stability conditions: • Stability studies are carried out on the powder form away from light under the following conditions: • closed bottle: 50° C., • open bottle: 40° C., 75% relative humidity. • A measurement is taken at T0 and at T0+14 days.
3. Analytical conditions: • HPLC system: • Column: Sunfire C18, 5 μm, 4.6×250 mm (Waters) temperature maintained at 35° C. • Eluent: CH3CN/MeOH/H2O/KH2PO4 400/150/450/6.8 (ml/ml/ml/g) adjusted to pH 7 (with KOH). • Flow rate: 1 ml/min • Detection: 269 nm

[2] = Water content of the powder in the comparative stability study; format: physicochemical
Protocol: as §1

[3] = T0 + 14 d, 40° C., 75% RH, open bottle, powder away from light
[4] = T0 + 14 d, 50° C., closed bottle, powder away from light
[5] = in the presence of moisture (40° C., 75% RH)
[6] = T0 + 14 d, 40° C., 75% RH, open bottle

| Substance | degradation in powder form ([1]; 50° C. (closed bottle)) | HPLC analysis [1, 3] | HPLC analysis [1, 4] | HPLC analysis ([1]; T0, powder, before storage) | degradation in powder form [1, 5] | Water content ([2]; T0) | Water content [2, 6] |
| --- | --- | --- | --- | --- | --- | --- | --- |
| vinflunine ditartrate [OP3.OB] | 2.1% | 98.21% | 97.18% | 99.28% | 1.07% | 6.27% | 10.18% |
| vinflunine fumarate [JLM4008400] | less than 0.2% | 99.38% | 99.56% | 99.52% | less than 0.2% | 1.33% | 4.18% |
